By pIC50 is commonly meant −log10 of the IC50, conventionally taken in molar units. The low end stands for a high IC50, the high end for a low IC50.

pIC50: −log10 of the molar value. A value given as a limit tells only on which side of the number the result lay.

The conditions of data set [1]: based on toxicity study in Wistar rats.
Method: For DOTA-MGS5, a toxicity study in Wistar rats was carried out in a GLP-compliant laboratory.
Data set [2] in a line: In vitro stability in PBS and serum. As to conditions: 37 °C, after 5 h, starting radiochemical purity 94.3%. The format is in vitro ADME.
Method: (§1) The in vitro stability of the corresponding radiocomplexes was determined in PBS and human serum at 37 °C. […] Cell viability (10^4 cells/well) and clonogenic assay (10^3 cells/well) was performed with [^213Bi]Bi-3p-C-NETA-TATE using the same cell line.
Data set [3] deals with SSTR2 expressing cells (BON-1.SSTR2). Description: Cell binding and internalization. As to conditions: BON-1.SSTR2, 60 min incubation. The format is cell-based.
Method: as §1
The next data set deals with BON-1.SSTR2. As to the kind of experiment: Clonogenic assay. Type of data set: cell-based.
The target in data set [4] is CXCR4 (UniProt P61073). As to the kind of experiment: competitive binding assay on cells with a fluorescent ligand.
Data set [5] concerns the target CXCR4 (UniProt P61073). As to the kind of experiment: radioligand binding.
The target of data set [6] is glucagon-like peptide-1 (GLP-1) receptor (UniProt P43220). As to the kind of experiment: competitive binding assay on cells.
The conditions of data set [7]: 37 °C, after 6 h.
Method: (§2) The stability of the radiolabeled peptide in human plasma and normal saline as well as partition coefficient (LogP) was determined. The effect of the peptide on platelet aggregation and the percent of binding radiopeptide to fibrin were studied.
The next data set has as its target fibrin (UniProt P02679). Description: binding of the radiolabelled pept.
The test system of another data set is plaque inflammation. Description: F-18 FDG PET of plaque inflammation (carotid TBR). Type of data set: in vivo, human. The method, then:
Materials and methods: We retrospectively analyzed F-18 FDG PET scans of patients treated with I-131 rituximab for the first time for relapsed or refractory CD20(+) B cell lymphoma. F-18 FDG PET scans were performed before (PET1), 5 days (PET2), and 1 m (PET3) after the administration of I-131 rituximab. […] TBRs measured in PET1, PET2, and PET3 were designated as TBR1, TBR2, and TBR3, respectively. Statistical analysis was performed using the Wilcoxon-test for comparison between the groups. In addition, we divided patients into 2 groups (patients with higher TBR1 versus equal to or lower TBR1 than the median value of TBR1) and compared TBRs on each PET dataset.

The target in the next data set is T1, HER2 (Homo sapiens, UniProt P04626).
T1 construct: flow cytometry in BT-474 (high HER2 density) and MCF-7 (low HER2 density); endogenous in cells; host or cells: BT-474 and MCF-7 cells
As to the kind of experiment: Binding by flow cytometry. As to conditions: BT-474 / MCF-7, cell line not stated. For orientation: Flow cytometry measures light scatter and fluorescence of single cells or particles in a stream.

Data set [8] deals with human cholecystokinin-2 receptor (CCK2R) (human) (UniProt P32239). Description: radioligand binding.
The target in data set [9] is rat cholecystokinin-2 receptor (CCK2R) (rat) (UniProt P30553). As to the kind of experiment: radioligand binding.
Chain of rat cholecystokinin-2 receptor (CCK2R) (rat) (P30553 whole entry): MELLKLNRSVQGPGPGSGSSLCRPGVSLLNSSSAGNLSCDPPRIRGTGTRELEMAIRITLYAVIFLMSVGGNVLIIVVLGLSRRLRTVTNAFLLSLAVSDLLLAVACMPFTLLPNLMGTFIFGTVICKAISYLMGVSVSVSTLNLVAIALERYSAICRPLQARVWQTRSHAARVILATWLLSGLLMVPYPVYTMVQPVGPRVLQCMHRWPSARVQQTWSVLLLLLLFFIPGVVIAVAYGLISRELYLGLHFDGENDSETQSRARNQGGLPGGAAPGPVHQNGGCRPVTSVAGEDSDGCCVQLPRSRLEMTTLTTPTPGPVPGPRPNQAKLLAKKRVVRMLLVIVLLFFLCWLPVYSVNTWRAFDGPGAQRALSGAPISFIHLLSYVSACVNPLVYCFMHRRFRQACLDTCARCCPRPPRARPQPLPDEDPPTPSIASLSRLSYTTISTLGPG

Chain of CXCR4 (P61073 whole entry): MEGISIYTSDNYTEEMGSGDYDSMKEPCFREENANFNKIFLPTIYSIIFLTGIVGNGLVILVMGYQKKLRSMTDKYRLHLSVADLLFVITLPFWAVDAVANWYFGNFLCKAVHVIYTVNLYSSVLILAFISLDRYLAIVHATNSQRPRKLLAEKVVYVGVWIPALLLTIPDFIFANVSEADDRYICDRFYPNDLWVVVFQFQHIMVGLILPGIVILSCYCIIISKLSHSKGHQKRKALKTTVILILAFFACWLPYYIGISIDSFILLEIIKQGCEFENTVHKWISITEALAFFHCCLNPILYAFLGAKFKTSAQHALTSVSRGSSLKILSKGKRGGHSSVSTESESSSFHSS
Chain of glucagon-like peptide-1 (GLP-1) receptor (P43220 24-463): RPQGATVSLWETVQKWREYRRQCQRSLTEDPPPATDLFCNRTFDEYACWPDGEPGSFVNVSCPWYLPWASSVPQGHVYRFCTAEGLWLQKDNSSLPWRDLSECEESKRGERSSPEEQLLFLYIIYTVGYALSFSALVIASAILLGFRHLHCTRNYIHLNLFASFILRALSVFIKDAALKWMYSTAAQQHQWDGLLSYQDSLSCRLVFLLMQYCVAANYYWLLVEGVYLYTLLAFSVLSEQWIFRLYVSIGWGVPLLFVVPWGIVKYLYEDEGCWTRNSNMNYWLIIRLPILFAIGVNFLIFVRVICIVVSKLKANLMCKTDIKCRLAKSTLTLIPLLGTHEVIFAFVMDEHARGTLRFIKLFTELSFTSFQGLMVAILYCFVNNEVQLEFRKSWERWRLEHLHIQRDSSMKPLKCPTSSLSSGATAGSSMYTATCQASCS
Chain of human cholecystokinin-2 receptor (CCK2R) (human) (P32239 whole entry): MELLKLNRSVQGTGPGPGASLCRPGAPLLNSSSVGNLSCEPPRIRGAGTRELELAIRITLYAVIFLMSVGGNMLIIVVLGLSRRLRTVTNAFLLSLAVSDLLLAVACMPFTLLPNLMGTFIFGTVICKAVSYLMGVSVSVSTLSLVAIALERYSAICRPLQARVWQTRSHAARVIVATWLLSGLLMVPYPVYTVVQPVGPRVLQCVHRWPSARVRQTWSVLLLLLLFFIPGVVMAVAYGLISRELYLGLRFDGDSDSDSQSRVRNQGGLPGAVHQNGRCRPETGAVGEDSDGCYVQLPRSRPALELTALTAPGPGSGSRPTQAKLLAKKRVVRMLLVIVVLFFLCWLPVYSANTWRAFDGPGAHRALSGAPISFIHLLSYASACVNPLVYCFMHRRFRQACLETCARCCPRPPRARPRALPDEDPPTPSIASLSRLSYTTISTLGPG
Chain of fibrin (P02679 whole entry, looked up): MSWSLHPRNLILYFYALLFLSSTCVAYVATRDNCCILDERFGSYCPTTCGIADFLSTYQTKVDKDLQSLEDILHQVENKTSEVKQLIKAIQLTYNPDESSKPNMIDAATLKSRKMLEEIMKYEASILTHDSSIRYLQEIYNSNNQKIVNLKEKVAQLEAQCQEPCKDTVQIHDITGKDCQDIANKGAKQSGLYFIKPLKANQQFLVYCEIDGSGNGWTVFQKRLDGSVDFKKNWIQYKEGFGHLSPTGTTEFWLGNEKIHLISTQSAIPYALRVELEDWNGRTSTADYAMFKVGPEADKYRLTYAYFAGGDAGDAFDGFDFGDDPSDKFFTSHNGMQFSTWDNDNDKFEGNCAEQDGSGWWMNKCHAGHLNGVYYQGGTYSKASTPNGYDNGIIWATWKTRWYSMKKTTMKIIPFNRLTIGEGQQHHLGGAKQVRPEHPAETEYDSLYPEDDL
Method for HER2: Binding characteristics were determined using flow cytometry in BT-474 (high HER2 density) and MCF-7 (low HER2 density).
Method for platelet aggregation: as §2

Turning to `CCCC[C@@H](C(=O)N[C@@H](CC(=O)O)C(=O)N[C@@H](Cc1cccc2ccccc12)C(N)=O)N(C)C(=O)[C@H](Cc1c[nH]c2ccccc12)NC(=O)CNC(=O)[C@H](Cc1ccc(O)cc1)NC(=O)[C@H](C)NC(=O)[C@@H](CCC(=O)O)NC(=O)CN1CCN(CC(=O)O)CCN(CC(=O)O)CCN(CC(=O)O)CC1` [DOTA-MGS5], in [1], the “maximum dose defined for the first therapeutic use” value is given as 100 µg.

In data set [2] (PBS), `C[C@@H](O)[C@H](NC(=O)[C@@H]1CSSC[C@H](NC(=O)[C@@H](Cc2ccccc2)NC(=S)Nc2ccc(CCCC(CN3CCN(CC(=O)O)CCN(CC(=O)O)CC3)N(CC(=O)O)CC(=O)O)cc2)C(=O)N[C@@H](Cc2ccc(O)cc2)C(=O)N[C@H](Cc2c[nH]c3ccccc23)C(=O)N[C@@H](CCCCN)C(=O)N[C@@H]([C@@H](C)O)C(=O)N1)C(=O)O` (stereo partly shown) [[^213Bi]Bi-3p-C-NETA-TATE, metal not drawn] showed an intact radiocomplex of 90%. Besides, the remaining at 5 h in data set [2] (human serum, read-out: intact radiocomplex) worked out at 90%. Further, in [3], the cell binding was 3.3 ± 0.5% and the “internalized share of cell binding” value is listed as 39.2%. Also, in the data set with BON-1.SSTR2, the “activity required for cell surviving fraction of 0.1 (SF0.1)” value is given as 0.1 MBq.

In the data set with CXCR4 [4], AlF-NOTA-(2×)DV1(c11sc12s) (peptide) gave a pIC50 of 8.89.

Compound AlF-NOTA-DV1-k-(DV3) (peptide) had a total-bound fraction (u87.CXCR4 cells) with CXCR4 [5] of 6%. In the data set with CXCR4 [4], the pIC50 is 8.28.

Take “DOTA-MI-exendin-4 (from UniProt P26349 48-87) (peptide)”: the affinity in data set [6] is under 11 nM.

“DOTA-exendin-4 (from UniProt P26349 48-87) (peptide; other documents disagree on this pair)” showed an affinity in data set [6] of under 11 nM.

As for “HYNIC-Gly-Pro-Lys-Gly-Ala-Ala-Asp [HYNIC-GPLGAAD]”, the “stability in human plasma” value in data set [7] stood at 95%. Also, in the data set with platelet aggregation, the “effect on platelet aggregation” value is listed as “no effect on platelet aggregation”.

As for “HYNIC-Gly-Pro-Lys-Gly-Ala-Ala-Asp peptide”, the other with fibrin was 71.4%.

On to “I-131 rituximab: radioimmunotherapy for CD20(+) B cell lymphoma”, for which the TBR1 in the data set with plaque inflammation (all 32 patients, PET1 before I-131 rituximab, mean and SD) is given as 1.49 ± 0.28. The TBR2 in the data set with plaque inflammation (all 32 patients, PET2 5 days after, mean and SD, P = 0.008 vs TBR1) was 1.36 ± 0.21. In the data set with plaque inflammation (all 32 patients, PET3 1 m after, mean and SD, P = 0.002 vs TBR1), this compound displayed a TBR3 of 1.35 ± 0.19. Besides, the “mean TBR” value in the data set on plaque inflammation (patients with higher TBR1 (n = 16), PET1) is 1.69; in the data set with plaque inflammation (patients with higher TBR1 (n = 16), PET2, P = 0.001), 1.46; in the data set on plaque inflammation (patients with higher TBR1 (n = 16), PET3, P < 0.001), 1.42; in the data set on plaque inflammation (patients with lower TBR1 (n = 16), PET1), 1.29; in the data set with plaque inflammation (patients with lower TBR1 (n = 16), PET2), 1.26; in the data set with plaque inflammation (patients with lower TBR1 (n = 16), PET3), 1.29.

Consider “NOTA-MI-exendin-4 (from UniProt P26349 48-87) (peptide)”, for which the affinity in data set [6] was under 11 nM.

As for “NOTA-exendin-4 (from UniProt P26349 48-87) (peptide; other documents disagree on this pair)”, the affinity in data set [6] is under 11 nM.

NOTA-rituximab: control IgG: the KD entry in the data set with HER2 is given as “no binding”.

As to [^177Lu]Lu-DOTA-MGS5 (peptide), the other in [8] worked out at 68%; in data set [9], 48.6%.

These data come from article PMC10267539 (EJNMMI Radiopharmacy and Chemistry, 2023).
